Our source for the Activity values is ChEMBL document CHEMBL1158899, “Synthesis and structure-phytotoxicity relationships of acetylenic phenols and chromene metabolites, and their analogues, from the grapevine pathogen Eutypa lata” (J Nat Prod, 2003).

The test system of data set [1] is Vitis vinifera. Nature of the data set: Phytotoxicity against grape leaf assessed as decrease in chlorophyll level after 64 hrs by leaf disk assay relative to control. The data set is classed as organism-based. Set-up: scale not given: the % may be the effect or the level left. As to conditions: in vivo; call rule not given here.
Data set [2] has as its system Vitis vinifera. As to the kind of experiment: Phytotoxicity against grape leaf by leaf disk assay. Type of data set: organism-based. The note with it: in vivo.

Regarding `CC1(C)C=Cc2cc(CO)ccc2O1` [EULATACHROMENE], the Activity in the data set with Vitis vinifera [1] was 60%.

`C=C(C)C#Cc1cc(O)ccc1O` [SICCAYNE]: the Activity result in the data set on Vitis vinifera [2] is given as “Not Active”.

As to `C=C(C)C#Cc1cc(C=O)ccc1O` [EUTYPINE], the result with Vitis vinifera [2] was Active.
